According to patent US9271993B2, “Treatment of bacterial infectious diseases” (priority 2010, dated 2016):
Values after ≈ are worked out from the molar mass of the structure shown. Where two headings read alike, the source gives them in different places.

Columns and labels:
E. coli = assay: MIC against gram-negative bacteria; type: cell-based
Text: Agents Chemother. 2003, 47:1496-1502.

[1] = tested on: clinical methicillin resistant Staphylococcus aureus (MRSA) isolates; assay: MIC against clinical MRSA isolates, LB microdilution assay
Experimental: Activity was assessed by determination of minimal inhibitory concentrations (MIC), as described in Pfister et al., Antimicrob. […] Cultures from single colonies were grown in LB medium and used for MIC tests in a microtiter plate format. Starting cultures contained 200 μl of bacterial cells at an optical density of 0.025 at 600 nm, and the respective drug was added in twofold series of dilution.

[2] = tested on: Cochlear explants from newborn mice; assay: Cochleatoxicity in vitro, hair cell loss in cochlear explants; type: cell-based; conditions: for Hair cell count: 0.5 mM aminoglycoside for 24 h, epifluorescence microscopy; for inner and outer hair cells missing / lost: 0.5 mM, FIG. 1
Experimental: FIG. 1: Cochleatoxicity in vitro
(a) Dose-response relationship of drug-induced hair cell loss in cochlear explants. Hair cell loss was quantified along the entire length of the explant and plotted against drug concentration. %=% outer hair cells missing.
Cochlear explants from newborn mice were treated with 0.5 mM aminoglycoside compound for 24 h; subsequently hair cell damage was assessed by epifluorescence microscopy.

[3] = General toxicity in guinea pigs; type: in vivo; conditions: systemic, once daily for 14 days, monitored additional 14 days
Text: Guinea pigs received a systemic application of aminoglycosides once daily in the dosing indicated in Table 9 for 14 days and were then monitored for an additional 14 days.

bacterial ribosomes = assay: Ribosomal drug susceptibility (MIC) of recombinant bacteria; parameters: MIC, bacterial ribosomes: unit not given beside the values; conditions: Table 7; 72 h incubation
mitohybrid ribosomes = assay: as above; parameters: MIC, mitohybrid ribosomes: unit not given beside the values; conditions: Table 7; 72 h incubation
cytohybrid ribosomes = assay: as above; parameters: MIC, cytohybrid ribosomes: unit not given beside the values; conditions: Table 7; 72 h incubation
[4] = E. coli AG01, clin. isol. (Gm^S)
[5] = E. coli AG02, clin. isol (Gm^S)
[6] = E. coli AG03, clin. isol (Gm^R)
[7] = E. coli AG08, BM13/pIP055, resistance mechanism ANT(2″)
[8] = E. coli AG09, AAC(6′)-1B, resistance mechanism AAC(6′)
[9] = E. coli AG36, HB101/pAT197, resistance mechanism ANT(4′)
[10] = E. coli AG37, HB101/pAG21-1, resistance mechanism APH(3′)
[11] = MRSA AG042, strain 101-06R Gm^R

Compound: CN[C@@H]1[C@@H](O)[C@@H](O[C@@H]2[C@@H](O)[C@H](O[C@H]3OC(CN)=CC[C@H]3N)[C@@H](N)C[C@H]2N)OC[C@]1(C)O [Sisomicin]
- MIC (E. coli; Escherichia coli, E. coli AG02, clin. isol (Gm^S), read-out: MIC): 1 µg/mL (≈ 2.23 µM)
- MIC (E. coli; Escherichia coli, E. coli AG03, clin. isol (Gm^R), read-out: MIC): 32 to 128 µg/mL (≈ 71.5 to 286 µM)
- MIC (E. coli; Escherichia coli, E. coli AG06, BM13, read-out: MIC): 0.25 µg/mL (≈ 0.559 µM)
- MIC (E. coli; Escherichia coli, E. coli AG07, BM13/pIP135, resistance mechanism AAC(3), read-out: MIC): 16 µg/mL (≈ 35.8 µM)
- MIC (E. coli; Escherichia coli, E. coli AG08, BM13/pIP055, resistance mechanism ANT(2″), read-out: MIC): 8 µg/mL (≈ 17.9 µM)
- MIC (E. coli; Escherichia coli, E. coli AG09, AAC(6′)-1B, resistance mechanism AAC(6′), read-out: MIC): 16 µg/mL (≈ 35.8 µM)
- MIC (E. coli; Escherichia coli, E. coli AG36, HB101/pAT197, resistance mechanism ANT(4′), read-out: MIC): 0.25 µg/mL (≈ 0.559 µM)
- MIC (E. coli; Escherichia coli, E. coli AG37, HB101/pAG21-1, resistance mechanism APH(3′), read-out: MIC): 0.125 µg/mL (≈ 0.279 µM)
- MIC ([1]; Staphylococcus aureus, MRSA, MRSA AG038, strain 70-26S Gm^S): 0.25 µg/mL (≈ 0.559 µM)
- MIC ([1]; Staphylococcus aureus, MRSA, MRSA AG040, strain 87-26S Gm^S): 0.25 µg/mL (≈ 0.559 µM)
- MIC ([1]; Staphylococcus aureus, MRSA, MRSA AG041, strain 98-25S Gm^S): 0.25 µg/mL (≈ 0.559 µM)
- MIC ([1]; Staphylococcus aureus, MRSA, MRSA AG042, strain 101-06R Gm^R): 32 µg/mL (≈ 71.5 µM)
- MIC ([1]; Staphylococcus aureus, MRSA, MRSA AG043, strain 01-08R Gm^R): 32 to 64 µg/mL (≈ 71.5 to 143 µM)
- MIC ([1]; Staphylococcus aureus, MRSA, MRSA AG044, strain 07-12R Gm^R): 8 µg/mL (≈ 17.9 µM)
- MIC ([1]; Staphylococcus aureus, MRSA, MRSA AG045, strain 08-12R Gm^R): 4 to 8 µg/mL (≈ 8.94 to 17.9 µM)
- MIC ([1]; Staphylococcus aureus, MRSA, MRSA AG046, strain 12-06R Gm^R): > 256 µg/mL
- MIC ([1]; Staphylococcus aureus, MRSA, MRSA AG047, strain 18-06R Gm^R): > 256 µg/mL
- MIC ([1]; Staphylococcus aureus, MRSA, MRSA AG048, strain 20-06R Gm^R): > 256 µg/mL
- MIC ([1]; Staphylococcus aureus, MRSA, MRSA AG049, strain 23-12R Gm^R): 8 µg/mL (≈ 17.9 µM)
- MIC ([1]; Staphylococcus aureus, MRSA, MRSA AG050, strain 31-06R Gm^R): 128 to 256 µg/mL (≈ 286 to 572 µM)
- MIC ([1]; Staphylococcus aureus, MRSA, MRSA AG051, strain 36-06R Gm^R): 64 µg/mL (≈ 143 µM)
- MIC ([1]; Staphylococcus aureus, MRSA, MRSA AG052, strain 53-14I Gm^R): 8 µg/mL (≈ 17.9 µM)
- MIC ([1]; Staphylococcus aureus, MRSA, MRSA AG053, strain 56-06R Gm^R): 32 µg/mL (≈ 71.5 µM)

Compound: Gentamicin
- MIC (E. coli; [4]): 4 to 8 µg/mL
- MIC (E. coli; [5]): 2 µg/mL
- MIC (E. coli; [6]): 256 to 512 µg/mL
- MIC (E. coli; E. coli AG06, BM13): 0.5 µg/mL
- MIC (E. coli; [7]): 16 µg/mL
- MIC (E. coli; [8]): 8 to 16 µg/mL
- MIC (E. coli; [9]): 0.5 µg/mL
- MIC (E. coli; [10]): 0.25 µg/mL
- Hair cell count [2]: almost all hair cells (inner and outer) missing
- inner and outer hair cells missing / lost [2]: > 80%
- observations (general toxicity) ([3]; 120 mg/kg base): normal weight gain
- observations (general toxicity) ([3]; 140 mg/kg base): significant weight loss
- observations (general toxicity) ([3]; 160 mg/kg base): 2 out of 3 died
- MIC ([1]; MRSA AG038, strain 70-26S Gm^S): 0.5 µg/mL
- MIC ([1]; MRSA AG040, strain 87-26S Gm^S): 0.5 µg/mL
- MIC ([1]; MRSA AG041, strain 98-25S Gm^S): 0.5 µg/mL
- MIC [1, 11]: 32 to 64 µg/mL
- MIC ([1]; MRSA AG043, strain 01-08R Gm^R): 32 to 64 µg/mL
- MIC ([1]; MRSA AG044, strain 07-12R Gm^R): 16 µg/mL
- MIC ([1]; MRSA AG045, strain 08-12R Gm^R): 16 µg/mL
- MIC ([1]; MRSA AG046, strain 12-06R Gm^R): ≧256 mg/l
- MIC ([1]; MRSA AG047, strain 18-06R Gm^R): ≧256 mg/l
- MIC ([1]; MRSA AG048, strain 20-06R Gm^R): ≧256 mg/l
- MIC ([1]; MRSA AG049, strain 23-12R Gm^R): 16 µg/mL
- MIC ([1]; MRSA AG050, strain 31-06R Gm^R): 128 µg/mL
- MIC ([1]; MRSA AG051, strain 36-06R Gm^R): 128 µg/mL
- MIC ([1]; MRSA AG052, strain 53-14I Gm^R): 16 to 32 µg/mL
- MIC ([1]; MRSA AG053, strain 56-06R Gm^R): 64 µg/mL
- MIC, bacterial ribosomes (bacterial ribosomes): 1
- MIC, mitohybrid ribosomes (mitohybrid ribosomes): 128
- MIC, cytohybrid ribosomes (cytohybrid ribosomes): 1024

Compound: Neomycin
- MIC (E. coli; [4]): 8 to 16 µg/mL
- MIC (E. coli; [5]): 4 µg/mL
- MIC (E. coli; [6]): 4 µg/mL
- MIC (E. coli; E. coli AG06, BM13): 1 µg/mL
- MIC (E. coli; E. coli AG07, BM13/pIP135, resistance mechanism AAC(3)): 4 µg/mL
- MIC (E. coli; [7]): 2 to 4 µg/mL
- MIC (E. coli; [8]): 8 to 32 µg/mL
- MIC (E. coli; [9]): 32 µg/mL
- MIC (E. coli; [10]): >256 µg/mL
- Hair cell count [2]: almost all hair cells (inner and outer) missing
- inner and outer hair cells missing / lost [2]: > 80%
- MIC ([1]; MRSA AG038, strain 70-26S Gm^S): 0.5 to 1 µg/mL
- MIC ([1]; MRSA AG040, strain 87-26S Gm^S): 128 µg/mL
- MIC ([1]; MRSA AG041, strain 98-25S Gm^S): 0.5 to 1 µg/mL
- MIC [1, 11]: 128 µg/mL
- MIC ([1]; MRSA AG043, strain 01-08R Gm^R): 1 to 4 µg/mL
- MIC ([1]; MRSA AG044, strain 07-12R Gm^R): 0.5 to 1 µg/mL
- MIC ([1]; MRSA AG045, strain 08-12R Gm^R): 0.5 to 1 µg/mL
- MIC ([1]; MRSA AG046, strain 12-06R Gm^R): >256 µg/mL
- MIC ([1]; MRSA AG047, strain 18-06R Gm^R): 256 µg/mL
- MIC ([1]; MRSA AG048, strain 20-06R Gm^R): 256 µg/mL
- MIC ([1]; MRSA AG049, strain 23-12R Gm^R): >256 µg/mL
- MIC ([1]; MRSA AG050, strain 31-06R Gm^R): 64 µg/mL
- MIC ([1]; MRSA AG051, strain 36-06R Gm^R): 64 µg/mL
- MIC ([1]; MRSA AG052, strain 53-14I Gm^R): >256 µg/mL
- MIC ([1]; MRSA AG053, strain 56-06R Gm^R): 0.5 to 1 µg/mL
- MIC, bacterial ribosomes (bacterial ribosomes): 1
- MIC, mitohybrid ribosomes (mitohybrid ribosomes): 32
- MIC, cytohybrid ribosomes (cytohybrid ribosomes): 1024
